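96-well plates; 48 h exposure; 5 concentrations. Endpoints by linear interpolation between flanking doses. Not reached: highest tested concentration assigned. GI50 is the concentration that inhibits growth by half.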 Activity calls are given as the source filed them. No stated cut-off is given here; in the data, active = GI50 up to about 1.1 µM and inactive = higher. Where a SMILES comes first, the peptide text is derived from it. [ ]: non-standard residue; d: D form. pGlu = O=C1CC[CH](C(=O)O)N1
Tests used:
Test in all cases: NCI tumour cell line growth inhibition, 48 h
U-251 = system: U-251
T47D = system: T47D
786-0 = system: 786-0
SR = system: SR
NCI-H460 = system: NCI-H460
HL-60 = system: HL-60
UACC-62 = system: UACC-62
SF-295 = system: SF-295
HCC 2998 = system: HCC 2998
ACHN = system: ACHN
PC-3 = system: PC-3
HCT-15 = system: HCT-15
MDA-MB-231 = system: MDA-MB-231
SK-OV-3 = system: SK-OV-3
EKVX = system: EKVX
K562 = system: K562
OVCAR-4 = system: OVCAR-4
A549 = system: A549
HOP-92 = system: HOP-92
Malme-3M = system: Malme-3M

Measured: GI50

CCC(C)NC(=S)N/N=C(\C)c1ccccn1 (stereo not given)
< 0.01 µM: HCT-15
inactive: OVCAR-4 1.31 µM | Malme-3M 1.83 µM
active: U-251 0.126 µM | T47D < 0.01 µM | 786-0 0.171 µM | SR < 0.01 µM | NCI-H460 0.15 µM | HL-60 < 0.01 µM | UACC-62 0.0733 µM | SF-295 0.215 µM | HCC 2998 0.447 µM | ACHN < 0.01 µM | PC-3 < 0.01 µM | MDA-MB-231 0.0543 µM | SK-OV-3 0.188 µM | EKVX < 0.01 µM | K562 < 0.01 µM | A549 0.0946 µM | HOP-92 0.14 µM

CNCCCNC1(c2cc3ccccc3s2)CCCCC1
inactive: U-251 4.65 µM | T47D 4.92 µM | 786-0 3.47 µM | SR 1.52 µM | NCI-H460 2.86 µM | HL-60 1.43 µM | UACC-62 1.94 µM | SF-295 14.2 µM | HCC 2998 1.29 µM | ACHN 14 µM | PC-3 9.44 µM | MDA-MB-231 2.99 µM | SK-OV-3 15.7 µM | EKVX 13.3 µM | K562 1.98 µM | OVCAR-4 13.5 µM | A549 7 µM | HOP-92 2.39 µM | Malme-3M 2.28 µM
8.43 µM: HCT-15

CC(NC(=O)C1CCC(=O)N1)C(=O)N1CCCC1C(N)=O (stereo not drawn) ([pGlu]-Ala-Pro-NH2; configuration not given here)
> 100 µM: HCT-15
inactive: U-251 > 100 µM | T47D > 100 µM | 786-0 61.7 µM | SR > 100 µM | NCI-H460 > 100 µM | HL-60 > 100 µM | UACC-62 > 100 µM | SF-295 > 100 µM | HCC 2998 > 100 µM | ACHN > 100 µM | PC-3 > 100 µM | MDA-MB-231 > 100 µM | SK-OV-3 > 100 µM | EKVX > 100 µM | K562 > 100 µM | OVCAR-4 > 100 µM | A549 > 100 µM | HOP-92 > 100 µM | Malme-3M > 100 µM

CC(=O)O[C@@]12CO[C@@H]1CC(O)[C@@]1(C)C(=O)[C@H](O)C3=C(C)C(O)C[C@@](O)(C(OC(=O)c4ccccc4)C12)C3(C)C (stereo not given in full)
active: U-251 0.828 µM | SR 1.06 µM | NCI-H460 1.02 µM | HL-60 0.41 µM | UACC-62 0.508 µM | PC-3 0.881 µM | SK-OV-3 0.767 µM | K562 0.619 µM
24.7 µM: HCT-15
inactive: T47D > 100 µM | 786-0 2.9 µM | SF-295 5.32 µM | HCC 2998 1.72 µM | ACHN 51.2 µM | MDA-MB-231 4.19 µM | EKVX 5.62 µM | OVCAR-4 > 90.8 µM | A549 3.81 µM | HOP-92 22.6 µM | Malme-3M 2.54 µM

O=[N+]([O-])c1ccc(C2Nn3c(nnc3-c3cccc([N+](=O)[O-])c3)S2)cc1 (stereo not given)
inactive: U-251 > 100 µM | T47D 49.4 µM | 786-0 > 100 µM | SR 84.1 µM | NCI-H460 > 100 µM | HL-60 89.3 µM | UACC-62 > 100 µM | SF-295 > 100 µM | HCC 2998 > 100 µM | ACHN > 100 µM | PC-3 > 100 µM | MDA-MB-231 > 100 µM | SK-OV-3 > 100 µM | EKVX > 100 µM | K562 50 µM | OVCAR-4 > 100 µM | A549 > 100 µM | HOP-92 > 100 µM | Malme-3M > 100 µM
> 100 µM: HCT-15

— ChEMBL document CHEMBL1201862, “PubChem BioAssay data set” (2004)
